Laboratory results taken from PubChem BioAssay AID179 (DTP/NCI, 2004).
The source made the active and inactive calls.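 How the source made its calls: active means compounds giving half or more protection of infected cells from virus-caused growth loss, again on retest; inactive means the rest.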

Tested on: CEM cells HIV-1 protection, formazan growth assay
Assay: NCI AIDS Antiviral Assay
Conditions: for IC50: measured here: growth of uninfected CEM cells
Summary of the method: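 Human CEM cells, uninfected and HIV-1-infected, exposed to five drug concentrations; growth measured by soluble formazan assay and scored as percent protection from infection, with protecting compounds retested.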

SMILES	EC50 [µM]	IC50 [µM]	outcome
CCOC(=O)/C=C1/Nc2cc(F)c(F)cc2NC1=O	> 200	> 200	
O=C(O)C1(C(=O)O)CCC1.[NH2-].[NH2-].[Pt+2]	> 339	7.94	
CCOC(=S)SC1OC(COC(C)=O)C(OC(C)=O)C(OC(C)=O)C1OC(C)=O (configuration not stated)	> 200	35.5	
NC(=O)c1cn(C2OC(CO)C(O)C2O)c2ncnc(N)c12 (configuration not stated)	> 0.2	0.00562	
C=C(CCC(Cl)C(COS(=O)(=O)c1ccc(C)cc1)OC(CCCO[Si](c1ccccc1)(c1ccccc1)C(C)(C)C)OCC)[Si](C)(C)C (configuration not stated)	> 5.01	> 5.01	
CC(C)OP(=O)(OC(C)C)C(N(C)C)P(=O)(OC(C)C)OC(C)C.[Cl][Sn]([Cl])([Cl])[c]1ccccc1			inactive
CC(=O)Nc1ccc(C(=O)OCC2OC(n3cc(C)c(=O)[nH]c3=O)CC2N=[N+]=[N-])cc1 (configuration not stated)	0.148	38.9	
C#CCOc1cc2c(c3oc(=O)cc(CCC)c13)[C@@H](O)[C@H](C)[C@@H](C)O2	> 200	> 200	
C1=NCCNCCNCCN=Cc2ccc(cc2)OCc2cccc(n2)COc2ccc1cc2	> 50.1	> 50.1	
Cc1ccc(SC(C)/C=C/NNC2=NC(c3ccccc3)C(c3ccccc3)=NN2)cc1 (configuration not stated)	> 22.4	> 22.4	
N#Cc1nc(C(CO)N(Cc2ccccc2)C(=O)O)oc1N (configuration not stated)	> 200	> 200	
C=C1C(=O)C[C@@]23CCC[C@@]12CC(O)C3 (some centres not stated)			inactive
COc1ccc(C[C@H](N)C(=O)N2C[C@H](CO)C[C@H](n3cnc4c(N(C)C)ncnc43)C2)cc1	> 138	81.3	
Cc1ccc(N2C=Nn3c(nc4sc5c(c4c3=O)CCCC5)C2)cc1	25.1	42.7	
CS1(C)=Nc2c([N+](=O)[O-])cc([N+](=O)[O-])cc2S(=O)(=O)N=1	> 112	58.9	
Oc1c(C2=N[C@H]3CCCC[C@@H]3N2)ccc2ccccc12	> 200	> 200	
c1ccc2c(c1)CC1COc3ccccc3C1O2 (configuration not stated)	> 200	70.8	
Cc1ccc(/C(O)=C/C(=O)C(=O)NN=C(c2ccccc2)c2ccccc2)cc1	> 200	107	

SMILES	EC50 [µM]	IC50 [µM]	outcome
CN1C=C(C(N)=O)Cc2ccsc21	> 1290	66.1	
O=C(O)c1cc2c(ncc3c(=O)n(-c4ccccc4)[nH]c32)s1	> 115	> 115	
CN(C)CC1CCC(CN(C)C)C(=O)C1=O (configuration not stated)	> 200	0.49	
Oc1ccc(Cl)cc1C1=NC(/N=C\c2ccccc2)=NC(c2ccccc2)C1 (configuration not stated)	> 200	8.91	
Cc1c(C)c(CC(=O)N2CC2)c(C)c(C)c1CC(=O)N1CC1	> 200	0.794	
C=C1CN(S(=O)(=O)c2ccc([N+](=O)[O-])cc2)CC(=C)CN(S(=O)(=O)c2ccc([N+](=O)[O-])cc2)CC(=C)CN(S(=O)(=O)c2ccc([N+](=O)[O-])cc2)C1	> 100	> 100	
CCCCCCCCOCC(O)COC(C)C (configuration not stated)	> 200	115	
CC1(C)Oc2cc3oc(=O)ccc3c3c2C2C1CCC(C)(O3)C2O (configuration not stated)	> 759	316	
NC(CS)=NCc1ccccc1	> 200	33.1	
CSc1nnc2sc(=S)[nH]n12	> 200	> 200	
C[C@H]1Oc2cc(O)c3ccc(=O)oc3c2C(=O)[C@@H]1C	> 200	17	
CCOP(=O)(OCC)/C(C#N)=C/c1ccc(Cl)cc1	> 316	195	
CCN(CC)CSc1nc2ccccc2o1			inactive
CN(C(=O)c1cccs1)C(=S)N1CCN(c2ccccc2)CC1	> 55	30.9	
Cc1ccc(C(=O)NCCCl)cc1C			inactive
N=C(N)CCNC(=O)c1c[nH]c2nc(N)[nH]c(=O)c12	> 347	> 347	
Cn1c(=O)nc2n(-c3ccc(Br)cc3)c3ccccc3nc-2c1=O			inactive
O=c1n(-c2ccccc2)c(=O)n2n1C1C3C4C3C2C2(F)C4C12 (configuration not stated)	> 200	> 200	
